This is an account of results in ChEMBL document CHEMBL1121410, “Structure--taste relationship of perillartine and nitro- and cyanoaniline derivatives” (J Med Chem, 1980).

Assay [1] is filed under the species Homo sapiens. Description: Activity expressed by taste potency (taste intensity relative to sucrose on a mole/mole basis). In kind it is functional.
The species entered for assay [2] is Homo sapiens. Description: Taste quality. In kind it is functional.
Assay [3] can be described thus: The activity was expressed by the logarithm of the taste potency as measure of taste intensity relative to that of sucrose on a mole/mole basis; I means insoluble.
A short description of assay [4]: Evaluated for taste quality, NS means not sweet.
The nature of assay [5]: The activity was expressed by the logarithm of the taste potency as measure of taste intensity relative to that of sucrose on a mole/mole basis;T = tasteless.
A short description of assay [6]: Evaluated for taste quality,.
The nature of assay [7]: The activity was expressed by the logarithm of the taste potency as measure of taste intensity relative to that of sucrose on a mole/mole basis; NI means not isolated.

On to `CCCCOc1ccc([N+](=O)[O-])cc1N`, for which, in assay [1], the “Log A” value worked out at 2.79.
For the compound `COC1CC=C(/C=N/O)CC1` (centres undefined), in assay [2], the Log sweet/bitter is on record as 0.21. Further, the “Log A” value in assay [1] was determined as 0.9.
`CCOc1ccc(C#N)cc1N`: the “Log A” value in assay [1] is listed as 2.63.
Still for that read-out and setting: the value for `C=C(C)/C=N/O` was 0.9; that for `C/C=C(C)/C=N/O` was 1.6; that for `N#Cc1ccc(Cl)c(N)c1` was 2.13.
Same read-out and setting: under `COCCCC/C=C(C)/C=N/O` stands 1.23.
The compound `CC1=CC=C(/C=N/O)CC1` registered a Log sweet/bitter in assay [2] of 0.23. Moreover, the “Log A” value in assay [1] worked out at 2.18.
In the same order, the values of `COC(C)C1CC=C(/C=N/O)CC1` (centres undefined) are 0.4 and 1.9.
For the compound `Cc1ccc([N+](=O)[O-])cc1N`, in assay [1], the “Log A” value is 2.17.
Regarding `COCC(C)(OC)C1CC=C(/C=N/O)CC1` (centres undefined), the “Log A” value in assay [1] turned out to be 1.7.
Still for that read-out and setting: under `CCCOc1ccc([N+](=O)[O-])cc1N` stands 3.46; under `C=COc1ccc([N+](=O)[O-])cc1N`, 3.06.
On to `O/N=C/C1=CCSCC1`, for which the “Log A” value in assay [1] amounted to 1.3.
For the compound `COCCOCC1CC=C(/C=N/O)CC1` (centres undefined), the “Log A” value in assay [3] is on record as “Insoluble”.
As to `CC(C)(OCC(=O)O)C1CC=C(/C=N/O)CC1` (centres undefined) [listing 1 of 2 here], the Log sweet/bitter result in assay [4] was “Not sweet”.
In the case of `CCOc1ccc([N+](=O)[O-])cc1N`, the “Log A” value in assay [1] stood at 2.87.
`C=C(C)C1CC=C(/C=N/O)CC1` (centres undefined) gave a Log sweet/bitter in assay [2] of 0.38. Moreover, in assay [1], the “Log A” value amounted to 2.57.
Regarding `CCCc1ccc([N+](=O)[O-])cc1N`, in assay [1], the “Log A” value is on record as 3.02.
On to `C/C=C(C)/C(C)=N/O`, for which the “Log A” value in assay [1] was found to be 2.15.
For `N#Cc1cccc(N)c1`, in assay [1], the “Log A” value was 0.94.
In the case of `C/C(=N\O)C1=CCCCC1`, the Log sweet/bitter entry in assay [4] was “Not sweet”. Also, the “Log A” value in assay [1] turned out to be 2.61.
As for `C=CC1CC=C(/C=N/O)CC1` (centres undefined), the Log sweet/bitter in assay [2] came out at 0.7. Also, the “Log A” value in assay [1] is 3.06.
Consider `O/N=C/C1=CCOCC1`, for which the “Log A” value in assay [1] amounted to 0.18.
In the case of `COCC/C=C(C)/C=N/O`, the “Log A” value in assay [1] came out at 0.6.
With `CCCOc1ccc(C#N)cc1N`, the “Log A” value in assay [1] is reported as 3.11.
In turn, `COCC1=CCC(/C=N/O)=CC1` had a Log sweet/bitter in assay [2] of 1.65. The “Log A” value in assay [1] came to 2.35.
In the same order, the values of `COCC(C)(O)C1CC=C(/C=N/O)CC1` (centres undefined) are -1.05 and 0.6.
In turn, `COC(C)C1=CCC(/C=N/O)=CC1` (centres undefined) had a Log sweet/bitter in assay [2] of 1.96. For the same compound, the “Log A” value in assay [1] is on record as 2.48.
Take `COCCC1CC=C(/C=N/O)CC1` (centres undefined): in assay [5], the “Log A” value is reported as “Tasteless”.
In the case of `CC(=O)C1CC=C(/C=N/O)CC1` (centres undefined), the Log sweet/bitter in assay [2] came out at 0.22. Moreover, the “Log A” value in assay [1] is on record as 1.08.
Turning to `Nc1cc([N+](=O)[O-])ccc1F`, the “Log A” value in assay [1] was 1.26.
As for `CC(C)(OCC(=O)O)C1CC=C(/C=N/O)CC1` (centres undefined) [listing 2 of 2 here], the Log sweet/bitter in assay [2] is listed as 0.15. In addition, in assay [1], the “Log A” value was 1.98.
In assay [6], `CC(C)(O)C1CC=C(/C=N/O)CC1` (centres undefined) came in with a Log sweet/bitter of -0.66. For the same compound, the “Log A” value in assay [1] worked out at 0.9.
For `O/N=C/C1=CCCC1`, the “Log A” value in assay [1] came out at 1.74.
Compound `CC(C)C1=CCC(/C=N/O)=CC1` had a Log sweet/bitter in assay [2] of -0.07. Besides, in assay [1], the “Log A” value is on record as 2.51.
For `O/N=C/C1=CC2C=CC1CC2` (centres undefined), in assay [4], the Log sweet/bitter entry was “Not sweet”. Besides, the “Log A” value in assay [1] came to 2.51.
`COC(C)(CO)C1CC=C(/C=N/O)CC1` (centres undefined): in assay [2], the Log sweet/bitter was -1.4. In addition, the “Log A” value in assay [1] is 1.04.
With `COc1ccc(C#N)cc1N`, in assay [1], the “Log A” value came out at 1.89.
`CO/N=C(/C)C1CC=C(/C=N/O)CC1` (centres undefined): the “Log A” value in assay [1] is 1.9.
Turning to `CC(C)(OCC(=O)[O-])C1CC=C(/C=N/O)CC1.[Na+]` (centres undefined), the “Log A” value in assay [1] is listed as 1.
The compound `COCC1CC=C(/C=N/O)C1` (centres undefined) registered a Log sweet/bitter in assay [2] of 0.64. In addition, the “Log A” value in assay [1] was 1.38.
As for `CC(C)Oc1ccc([N+](=O)[O-])cc1N`, the “Log A” value in assay [1] was 2.54.
Still for that read-out and setting: under `CC1(C2CC=C(/C=N/O)CC2)CO1` (centres undefined) stands 1.7.
As to `O/N=C/C1=CC=CCC1`, the “Log A” value in assay [1] is 1.95.
Compound `CCOC1CC=C(/C=N/O)CC1` (centres undefined) registered a Log sweet/bitter in assay [2] of 0.21. Also, the “Log A” value in assay [1] came to 1.2.
`COCC1=CCC=C(/C=N/O)C1`: the Log sweet/bitter entry in assay [4] was “Not sweet”. Also, the “Log A” value in assay [1] was determined as 2.15.
The compound `COC(C)C1CCC=C(/C=N/O)C1` (centres undefined) displayed a Log sweet/bitter in assay [2] of -1.4. For the same compound, the “Log A” value in assay [1] came to 1.45.
On the same counts, the results for `COC(C)C1=CC=C(/C=N/O)CC1` (centres undefined) are 0.97 and 2.13.
In the case of `O/N=C/C1=CCCCC1`, in assay [1], the “Log A” value is on record as 1.74.
The same measure, in the same setting: under `N#Cc1ccc(Br)c(N)c1` stands 2.46.
The compound `C=CC1C=C(/C=N/O)CCC1` (centres undefined) registered a Log sweet/bitter in assay [2] of -0.39. For the same compound, the “Log A” value in assay [1] came out at 2.24.
In the same order, the values of `CC(O)(CO)C1CC=C(/C=N/O)CC1` (centres undefined) are -1.15 and 1.48.
On to `Nc1cccc([N+](=O)[O-])c1` [3-NITROANILINE], for which the “Log A” value in assay [1] amounted to 1.21.
Same read-out and setting: under `O/N=C/C1=CCC=CC1` stands 2.3.
Take `COC(C)C1=CCC=C(/C=N/O)C1` (centres undefined): in assay [4], the Log sweet/bitter result is “Not sweet”. Further, the “Log A” value in assay [1] was 1.96.
For `Nc1cc([N+](=O)[O-])ccc1O` [2-AMINO-4-NITROPHENOL], in assay [1], the “Log A” value is on record as 1.96.
Turning to `CC1=CCC(/C=N/O)=CC1`, the Log sweet/bitter in assay [2] worked out at 1.42. Also, the “Log A” value in assay [1] was determined as 2.7.
Consider `Nc1cc([N+](=O)[O-])ccc1I`, for which, in assay [1], the “Log A” value was found to be 2.98.
As to `O/N=C/C1=COCCC1`, in assay [1], the “Log A” value worked out at 0.48.
With `Nc1cc([N+](=O)[O-])ccc1Cl`, the “Log A” value in assay [1] was 2.31.
In the case of `Nc1cc([N+](=O)[O-])ccc1Br`, the “Log A” value in assay [1] was determined as 2.71.
On to `CC1CC=C(/C=N/O)CC1` (centres undefined), for which, in assay [2], the Log sweet/bitter was -0.1. In addition, in assay [1], the “Log A” value stood at 2.4.
In the case of `O/N=C/C1=CCCOC1`, the “Log A” value in assay [1] stood at 0.3.
In assay [2], `COCC1CC=C(/C=N/O)CC1` (centres undefined) registered a Log sweet/bitter of 0.38. Further, the “Log A” value in assay [1] is reported as 1.72.
As for `COCC1=CC=C(/C=N/O)CC1`, in assay [7], the “Log A” value is “Not isolated”.
For `COCC(OC)C1CC=C(/C=N/O)CC1` (centres undefined), in assay [4], the Log sweet/bitter result was “Not sweet”. The “Log A” value in assay [1] is 0.9.
The compound `COCC1CCC=C1/C=N/O` (centres undefined) had a Log sweet/bitter in assay [2] of -0.12. Further, the “Log A” value in assay [1] came out at 1.52.
With `CC1CC=C(/C=N/O)C(C)O1` (centres undefined), the Log sweet/bitter result in assay [4] was “Not sweet”. The “Log A” value in assay [1] turned out to be 1.
In the case of `COc1ccc([N+](=O)[O-])cc1N`, the “Log A” value in assay [1] was 2.21.
